Results from patent publication US10023602B2, “Hamamelitannin analogues and uses thereof” (Universiteit Gent, priority 2014, dated 2018).
pEC50: −log10 of the molar value.

Experiments:
[1] = tested on: methicillin resistant S. aureus Mu50 strain (S. aureus ATCC700699) biofilm; test: Biofilm susceptibility to vancomycin, pre-treatment regimen (biofilm formed in presence of compound, then vancomycin); assay type: cell-based; conditions: for Pretreat (100 μM): percentage Colony Forming Units (CFU's) per biofilm: compound 100 μM during biofilm formation; for Pretreat (100 μM): percentage Colony Forming Units (CFU's) per biofilm / Pretreat. (25 μM): percentage Colony Forming Units (CFU's) per biofilm: then VAN 20 μg/ml, compared to the untreated (negative) control; for pEC50: concentration needed to get 50% killing compared to antibiotic alone (VAN 20 μg/ml) and complete killing, read-out: Pretreat. (EC50); for Pretreat. (25 μM): percentage Colony Forming Units (CFU's) per biofilm: compound 25 μM during biofilm formation
Method in brief: (§1)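 Mu50 biofilms from 10^8 CFU/ml inoculum (4 h adhesion, then 20 h, 37 °C). Pre-treatment: compound (0.1-250 μM) present during biofilm formation, then vancomycin 20 μg/ml alone 24 h; combination: mature biofilm given vancomycin 20 μg/ml plus compound 24 h. Survivors counted by plating versus vancomycin alone.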

[2] = tested on: methicillin resistant S. aureus Mu50 strain (S. aureus ATCC700699) biofilm; test: Biofilm susceptibility to vancomycin, combination treatment regimen (mature biofilm treated with compound plus vancomycin); assay type: cell-based; conditions: for Combin. (100 μM): percentage Colony Forming Units (CFU's) per biofilm: compound 100 μM together with VAN 20 μg/ml on mature biofilm; for Combin. (100 μM): percentage Colony Forming Units (CFU's) per biofilm / Combin. (25 μM): percentage Colony Forming Units (CFU's) per biofilm: compared to the untreated (negative) control; for pEC50: concentration needed to get 50% killing compared to antibiotic alone (VAN 20 μg/ml) and complete killing, read-out: Combin. (EC50); for Combin. (25 μM): percentage Colony Forming Units (CFU's) per biofilm: compound 25 μM together with VAN 20 μg/ml on mature biofilm
Method in brief: as §1

| Structure (SMILES) | Pretreat (100 μM): percentage Colony Forming Units (CFU's) per biofilm [1] [percentage] | Combin. (100 μM): percentage Colony Forming Units (CFU's) per biofilm [2] [percentage] | pEC50 [1] | pEC50 [2] | Pretreat. (25 μM): percentage Colony Forming Units (CFU's) per biofilm [1] [percentage] | Combin. (25 μM): percentage Colony Forming Units (CFU's) per biofilm [2] [percentage] |
| --- | --- | --- | --- | --- | --- | --- |
| O=C(NC[C@]1(O)CO[C@H](Cn2cc(-c3ccccc3)nn2)[C@H]1O)c1ccccc1 [compound 221, N-(((3S,4R,5R)-3,4-dihydroxy-5-((4-phenyl-1H-1,2,3-triazol-1-yl)methyl)tetrahydrofuran-3-yl)methyl)benzamide] | 54.01 | 33.81 |  |  |  |  |
| O=C(NC[C@]1(O)CO[C@H](Cn2nncc2-c2ccccc2)[C@H]1O)c1ccccc1 [compound 222, N-(((3S,4R,5R)-3,4-dihydroxy-5-((5-phenyl-1H-1,2,3-triazol-1-yl)methyl)tetrahydrofuran-3-yl)methyl)benzamide] | 47.10 | 73.90 |  |  |  |  |
| O=C(NC[C@H]1OC[C@@](O)(CNC(=O)c2ccccc2)[C@@H]1O)Nc1ccccc1 [compound 223, N-(((3S,4R,5R)-3,4-dihydroxy-5-((3-phenylureido)methyl)tetrahydrofuran-3-yl)methyl)benzamide] | 23.99 | 18.72 |  |  |  |  |
| O=C(NC[C@]1(O)CO[C@H](CNC(=S)Nc2ccccc2)[C@H]1O)c1ccccc1 [compound 224, N-(((3S,4R,5R)-3,4-dihydroxy-5-((3-phenylthioureido)methyl)tetrahydrofuran-3-yl)methyl)benzamide] | 20.22 | 27.33 |  |  |  |  |
| CC(=O)NC[C@H]1OC[C@@](O)(CNC(=O)c2ccccc2)[C@@H]1O [compound 225, N-(((3S,4R,5R)-5-(acetamidomethyl)-3,4-dihydroxytetrahydrofuran-3-yl)methyl)benzamide] | 23.96 | 27.38 |  |  |  |  |
| CC(C)(C)C(=O)NC[C@H]1OC[C@@](O)(CNC(=O)c2ccccc2)[C@@H]1O [compound 226, N-(((3S,4R,5R)-3,4-dihydroxy-5-(pivalamidomethyl)tetrahydrofuran-3-yl)methyl)benzamide] | 50.74 | 28.64 |  |  |  |  |
| O=C(NC[C@]1(O)CO[C@H](CN2C(=O)c3ccc(Cl)cc3C2=O)[C@H]1O)c1ccccc1 [compound 227, N-(((3S,4R,5R)-5-((5-chloro-1,3-dioxoisoindolin-2-yl)methyl)-3,4-dihydroxytetrahydrofuran-3-yl)methyl)benzamide] | 77.57 | 61.81 |  |  |  |  |
| O=C(NC[C@]1(O)CO[C@H](CNCc2ccccc2)[C@H]1O)c1ccccc1 [compound 228, N-(((3S,4R,5R)-5-((benzylamino)methyl)-3,4-dihydroxytetrahydrofuran-3-yl)methyl)benzamide] | 18.68 | 22.13 | 4.39 | 4.34 |  |  |
| CN(C[C@]1(O)CO[C@H](CNC(=O)c2ccccc2)[C@H]1O)C(=O)c1ccccc1 [compound 229, N-(((3S,4R,5R)-5-(benzamidomethyl)-3,4-dihydroxytetrahydrofuran-3-yl)methyl)-N-methylbenzamide] | 7.17 | 11.15 | 5.24 | 5.05 |  |  |
| O=C(NC[C@]1(O)CO[C@H](CN2Cc3ccccc3C2=O)[C@H]1O)c1ccccc1 [compound 230, N-(((3S,4R,5R)-3,4-dihydroxy-5-((1-oxoisoindolin-2-yl)methyl)tetrahydrofuran-3-yl)methyl)benzamide] | 24.90 | 30.15 | 4.24 | 4.22 |  |  |
| O=C(NC[C@H]1OC[C@@](O)(CN2C(=O)c3ccccc3C2=O)[C@@H]1O)c1ccccc1Cl [compound 231, 2-chloro-N-(((2R,3R,4S)-4-((1,3-dioxoisoindolin-2-yl)methyl)-3,4-dihydroxytetrahydrofuran-2-yl)methyl)benzamide] | 8.18 | 28.85 | 5.58 | 4.41 |  |  |
| Cc1ccc(C(=O)NC[C@]2(O)CO[C@H](CNC(=O)c3ccccc3Cl)[C@H]2O)cc1 [compound 232, 2-chloro-N-(((2R,3R,4S)-3,4-dihydroxy-4-((4-methylbenzamido)methyl)tetrahydrofuran-2-yl)methyl)benzamide] |  |  | 4.10 | 4.38 | 52.41 | 42.16 |
| O=C(NC[C@]1(O)CO[C@H](CNC(=O)c2ccccc2Cl)[C@H]1O)c1ccc(F)cc1 [compound 233, 2-chloro-N-(((2R,3R,4S)-4-((4-fluorobenzamido)methyl)-3,4-dihydroxytetrahydrofuran-2-yl)methyl)benzamide] |  |  |  |  | 88.61 | 91.63 |
| O=C(NC[C@]1(O)CO[C@H](CNC(=O)c2ccccc2Cl)[C@H]1O)c1ccc(Cl)cc1 [compound 234, 2-chloro-N-(((2R,3R,4S)-4-((4-chlorobenzamido)methyl)-3,4-dihydroxytetrahydrofuran-2-yl)methyl)benzamide] |  |  |  |  | 61.12 | 56.96 |
| COc1ccc(C(=O)NC[C@]2(O)CO[C@H](CNC(=O)c3ccccc3Cl)[C@H]2O)cc1 [compound 235, 2-chloro-N-(((2R,3R,4S)-3,4-dihydroxy-4-((4-methoxybenzamido)methyl)tetrahydrofuran-2-yl)methyl)benzamide] |  |  |  |  | 66.10 | 57.35 |
| N#Cc1ccc(C(=O)NC[C@]2(O)CO[C@H](CNC(=O)c3ccccc3Cl)[C@H]2O)cc1 [compound 236, 2-chloro-N-(((2R,3R,4S)-4-((4-cyanobenzamido)methyl)-3,4-dihydroxytetrahydrofuran-2-yl)methyl)benzamide] |  |  |  |  | 73.00 | 70.73 |
| CN(C)c1ccc(C(=O)NC[C@]2(O)CO[C@H](CNC(=O)c3ccccc3Cl)[C@H]2O)cc1 [compound 237, 2-chloro-N-(((2R,3R,4S)-4-((4-(dimethylamino)benzamido)methyl)-3,4-dihydroxytetrahydrofuran-2-yl)methyl)benzamide] |  |  | 4.32 | 4.16 | 58.79 | 47.56 |
| O=C(NC[C@]1(O)CO[C@H](CNC(=O)c2ccccc2Cl)[C@H]1O)c1ccc(C(F)(F)F)cc1 [compound 238, 2-chloro-N-(((2R,3R,4S)-3,4-dihydroxy-4-((4-(trifluoromethyl)benzamido)methyl)tetrahydrofuran-2-yl)methyl)benzamide] |  |  | 4.07 | 4.12 | 45.03 | 68.51 |
| O=C(NC[C@]1(O)CO[C@H](CNC(=O)c2ccccc2Cl)[C@H]1O)c1ccncc1 [compound 239, N-(((3S,4R,5R)-5-((2-chlorobenzamido)methyl)-3,4-dihydroxytetrahydrofuran-3-yl)methyl)isonicotinamide] |  |  |  |  | 49.98 | 58.76 |
| O=C(NC[C@]1(O)CO[C@H](CNC(=O)c2ccccc2Cl)[C@H]1O)c1cccc(F)c1 [compound 240, 2-chloro-N-(((2R,3R,4S)-4-((3-fluorobenzamido)methyl)-3,4-dihydroxytetrahydrofuran-2-yl)methyl)benzamide] |  |  |  |  | 118.37 | 91.32 |
| O=C(NC[C@]1(O)CO[C@H](CNC(=O)c2ccccc2Cl)[C@H]1O)c1cccc(Cl)c1 [compound 241, 2-chloro-N-(((2R,3R,4S)-4-((3-chlorobenzamido)methyl)-3,4-dihydroxytetrahydrofuran-2-yl)methyl)benzamide] |  |  |  |  | 98.17 | 81.35 |
| O=C(NC[C@]1(O)CO[C@H](CNC(=O)c2ccccc2Cl)[C@H]1O)c1cccc(C(F)(F)F)c1 [compound 242, 2-chloro-N-(((2R,3R,4S)-3,4-dihydroxy-4-((3-(trifluoromethyl)benzamido)methyl)tetrahydrofuran-2-yl)methyl)benzamide] |  |  |  |  | 117.15 | 87.14 |
| O=C(NC[C@]1(O)CO[C@H](CNC(=O)c2ccccc2Cl)[C@H]1O)c1cccnc1 [compound 243, N-(((3S,4R,5R)-5-((2-chlorobenzamido)methyl)-3,4-dihydroxytetrahydrofuran-3-yl)methyl)nicotinamide] |  |  |  |  | 85.00 | 51.83 |
